Data reported in paper PMC8501045, “Addressing MRSA infection and antibacterial resistance with peptoid polymers” (Nature Communications, 2021).
In brackets after ≈: the same amount, converted by molar mass. Several values for one entry are separate records, joined by “and”; a condition that tells them apart may be missing. Equal entries are not always repeated. Where two headings read alike, the source gives them in different places.

Experiments:
E. faecalis 0609 = assay: MIC assay, clinical isolate; format: cell-based; settings: Enterococcus faecalis
Method: (§1) MRSA (S. aureus Mu50, S. aureus Newman, S. aureus USA400, S. aureus USA300 LAC, S. aureus USA300) were obtained from Shanghai Institute of Materia Medica, Chinese Academy of Sciences. All clinically isolated Gram-positive bacteria used in this study were isolated from patients with various infections, different ages and sexes in the Shanghai Ruijin Rehabilitation Hospital. All strains were cultured in Luria-Bertani (LB) medium at 37 °C before use.
(§2) Bacteria were cultured in LB medium at 37 °C for 10 h, and then the bacterial suspension was diluted in Mueller–Hinton (MH) medium to a cell density of 2 × 10^5 colony forming units (CFU)/mL as the working suspension. The poly(Naeg)20 was serially diluted by MH medium in a 96-well plate, and an equal volume of bacterial suspension was added into each well. The final concentration of the poly(Naeg)20 was ranging from 200 to 1.56 μg/mL, and the plates were incubated at 37 °C for 9 h. Wells with inoculum and no polymer were used as the positive control; wells with only MH medium were used as the blank. The optical density (OD) in each well was measured on a Molecular Devices SpectraMax M2 precision microplate reader. The percentage of bacteria growth was calculated from1 %cellgrowth=A600polymer-A600blank/A600control-A600blank×100
(§3) The test was independently repeated at least three times.

E. faecalis 2305 = assay: MIC assay, clinical isolate; format: cell-based; settings: Enterococcus faecalis
Method: as §1, §2, §3

E. faecium 0502 = assay: MIC assay, clinical isolate; format: cell-based; settings: Enterococcus faecium; clinical isolate E. faecium 0502; read-out: MIC
Method: as §1, §2, §3

E. faecium 0609 = assay: MIC assay, clinical isolate; format: cell-based; settings: Enterococcus faecium; clinical isolate E. faecium 0609; read-out: MIC
Method: as §1, §2, §3

E. faecium 0610 = assay: MIC assay, clinical isolate; format: cell-based; settings: Enterococcus faecium; clinical isolate E. faecium 0610; read-out: MIC
Method: as §1, §2, §3

E. faecium 1205 = assay: MIC assay, clinical isolate; format: cell-based; settings: Enterococcus faecium; clinical isolate E. faecium 1205; read-out: MIC
Method: as §1, §2, §3

E. faecium 2504 = assay: MIC assay, clinical isolate; format: cell-based; settings: Enterococcus faecium; clinical isolate E. faecium 2504; read-out: MIC
Method: as §1, §2, §3

S. agalactiae 0613 = assay: MIC assay, clinical isolate; format: cell-based; settings: Streptococcus agalactiae; clinical isolate S. agalactiae 0613; read-out: MIC
Method: as §1, §2, §3

S. aureus 2202 = assay: MIC assay, clinical isolate; format: cell-based; settings: Staphylococcus aureus; clinical isolate S. aureus 2202; read-out: MIC
Method: as §1, §2, §3

S. aureus 2802 = assay: MIC assay, clinical isolate; format: cell-based; settings: Staphylococcus aureus; clinical isolate S. aureus 2802; read-out: MIC
Method: as §1, §2, §3

S. aureus 2902 = assay: MIC assay, clinical isolate; format: cell-based; settings: Staphylococcus aureus; clinical isolate S. aureus 2902; read-out: MIC
Method: as §1, §2, §3

S. aureus 2904 = assay: MIC assay, clinical isolate; format: cell-based; settings: Staphylococcus aureus; clinical isolate S. aureus 2904; read-out: MIC
Method: as §1, §2, §3

S. epidermidis 0501 = assay: MIC assay, clinical isolate; format: cell-based; settings: Staphylococcus epidermidis; clinical isolate S. epidermidis 0501; read-out: MIC
Method: as §1, §2, §3

S. epidermidis 9397 = assay: MIC assay, clinical isolate; format: cell-based; settings: Staphylococcus epidermidis; clinical isolate S. epidermidis 9397; read-out: MIC
Method: as §1, §2, §3

S. haemolyticus 0202 = assay: MIC assay, clinical isolate; format: cell-based; settings: Staphylococcus haemolyticus; clinical isolate S. haemolyticus 0202; read-out: MIC
Method: as §1, §2, §3

S. haemolyticus 1107 = assay: MIC assay, clinical isolate; format: cell-based; settings: Staphylococcus haemolyticus; clinical isolate S. haemolyticus 1107; read-out: MIC
Method: as §1, §2, §3

S. haemolyticus 1303 = assay: MIC assay, clinical isolate; format: cell-based; settings: Staphylococcus haemolyticus; clinical isolate S. haemolyticus 1303; read-out: MIC
Method: as §1, §2, §3

L. monocytogenes 1001 = assay: MIC assay, clinical isolate; format: cell-based, Listeria monocytogene; settings: Listeria monocytogenes
Method: as §1, §2, §3

S. aureus ATCC6538 [1] = format: cell-based, Staphylococcus aureus; settings: after 375 passages
Method: The antimicrobial-resistance test was conducted according to the previously reported method with slight modification. […] An aliquot of 2.5 μL of the mixture was sampled and diluted 400-fold in LB medium for a new cell-drug incubation cycle. The above cycle was repeated every 24 h. […] Generation of bacteria growth was calculated from incubating time and bacteria growth kinetics described below.

S. aureus ATCC6538 [2] = assay: Bacterial killing kinetics; format: cell-based, Staphylococcus aureus; settings: 2×MBC (Figure S40)
[3] = test system: S. aureus USA300 biofilm formation; assay: Inhibition study on biofilm formation; format: cell-based, Staphylococcus aureus
Method: The plate was incubated at 37 °C for 24 h, and then the culture medium was removed, washed with PBS once, followed by adding 100 µL MTT solution (0.5 mg/mL) into the corresponding well. After further incubation at 37 °C for 4 h in the dark, the MTT solution was removed. An aliquot of 100 μL DMSO was added to each well to solubilize the purple solid and then the OD value was collected at 570 nm on a microplate reader. Wells containing inoculum and without antibacterial agents were used as the positive control; wells containing only MH medium were used as the blank. The percentage of surviving cells within biofilm was calculated from4 %cellviability=A570polymer-A570blank/A570control-A570blank×100
as §3

[4] = test system: S. aureus USA300 mature biofilm; assay: Activity against mature biofilm; format: cell-based, Staphylococcus aureus; settings: for Biofilm survival(%): norfloxacin, r4-r9 = 64, 128, 256, 512, 1024, 2048 MIC
Method: The plate was incubated at 37 °C for 24 h to allow biofilm formation. […] Then MTT assay was used to determine the biofilm viability. Wells containing inoculum and without antibacterial agents were used as the positive control; wells containing only MH medium were used as the blank. The percentage of surviving cells within biofilm was calculated from5 %cellviability=A570polymer-A570blank/A570control-A570blank×100
as §3

[5] = clinical isolate L. monocytogenes 1001, read-out: MIC
[6] = clinical isolate E. faecalis 2305, read-out: MIC

SMILES | MIC (E. faecalis 0609; 0609) | MIC (E. faecium 0502) | MIC (E. faecium 0609) | MIC (E. faecium 0610) | MIC (E. faecium 1205) | MIC (E. faecium 2504) | MIC (S. agalactiae 0613) | MIC (S. aureus 2202) | MIC (S. aureus 2802) | MIC (S. aureus 2902) | MIC (S. aureus 2904) | MIC (S. epidermidis 0501) | MIC (S. epidermidis 9397) | MIC (S. haemolyticus 0202) | MIC (S. haemolyticus 1107) | MIC (S. haemolyticus 1303) | MIC (L. monocytogenes 1001; [5]) | MIC (E. faecalis 2305; [6]) | time to kill 90% of S. aureus (S. aureus ATCC6538 [2]) | other results
CC1(C)S[C@@H]2[C@H](NC(=O)[C@H](N)c3ccccc3)C(=O)N2[C@H]1C(=O)O [Ampicillin] | 3.13 µg/mL (≈ 8.96 µM) | > 200 µg/mL | > 200 µg/mL | > 200 µg/mL | > 200 µg/mL | 100 µg/mL (≈ 286 µM) | 0.39 µg/mL (≈ 1.12 µM) | 1.56 µg/mL (≈ 4.46 µM) | 25 µg/mL (≈ 71.5 µM) | 25 µg/mL (≈ 71.5 µM) | 25 µg/mL (≈ 71.5 µM) | 6.25 µg/mL (≈ 17.9 µM) | 0.39 µg/mL (≈ 1.12 µM) | 200 µg/mL (≈ 572 µM) | > 200 µg/mL | 200 µg/mL (≈ 572 µM) | 1.56 µg/mL (≈ 4.46 µM) |  |  | MIC (E. faecalis 2305; 2305): 12.5 µg/mL (≈ 35.8 µM)
COc1cccc(OC)c1C(=O)N[C@@H]1C(=O)N2[C@@H]1SC(C)(C)[C@@H]2C(=O)O [Methicillin] |  | > 200 µg/mL | > 200 µg/mL | > 200 µg/mL | > 200 µg/mL | > 200 µg/mL | 1.56 µg/mL (≈ 4.1 µM) | 3.13 µg/mL (≈ 8.23 µM) | 6.25 µg/mL (≈ 16.4 µM) | 12.5 µg/mL (≈ 32.9 µM) | 6.25 µg/mL (≈ 16.4 µM) | 12.5 µg/mL (≈ 32.9 µM) | 1.56 µg/mL (≈ 4.1 µM) | 200 µg/mL (≈ 526 µM) | > 200 µg/mL | > 200 µg/mL | 25 µg/mL (≈ 65.7 µM) | > 200 µg/mL |  | MIC (E. faecalis 0609; clinical isolate E. faecalis 0609, read-out: MIC): 50 µg/mL (≈ 131 µM)
CCn1cc(C(=O)O)c(=O)c2cc(F)c(N3CCNCC3)cc21 [Norfloxacin] | 1.56 µg/mL (≈ 4.89 µM) | 100 µg/mL (≈ 313 µM) | > 200 µg/mL | 200 µg/mL (≈ 626 µM) | 100 µg/mL (≈ 313 µM) | 200 µg/mL (≈ 626 µM) | 25 µg/mL (≈ 78.3 µM) | 50 µg/mL (≈ 157 µM) | 200 µg/mL (≈ 626 µM) | 25 µg/mL (≈ 78.3 µM) | 200 µg/mL (≈ 626 µM) | 0.2 µg/mL (≈ 0.626 µM) | 0.2 µg/mL (≈ 0.626 µM) | 100 µg/mL (≈ 313 µM) | 100 µg/mL (≈ 313 µM) | 25 µg/mL (≈ 78.3 µM) |  | 25 µg/mL (≈ 78.3 µM) | 2 to 3 h | MIC (L. monocytogenes 1001; 1001): 1.56 µg/mL (≈ 4.89 µM); increase of MBC (S. aureus ATCC6538 [1]): 1024 times; concentration required to inhibit the formation of S. aureus biofilm [3]: 64 × MIC; concentration that eradicates mature biofilms of S. aureus [4]: > 2048 × MIC; Biofilm survival(%) ([4]; replicate 1): 91.6463% and 85.7695% and 83.8544% and 89.6297% and 72.4394% and 55.1024%; Biofilm survival(%) ([4]; replicate 2): 89.0013% and 75.6713% and 82.9402% and 81.0138% and 70.6748% and 61.6339%; Biofilm survival(%) ([4]; replicate 3): 91.3528% and 81.8867% and 88.4821% and 86.774% and 64.2036% and 56.0543%
C[C@H]1COc2c(N3CCN(C)CC3)c(F)cc3c(=O)c(C(=O)O)cn1c23 [levofloxacin] |  |  |  |  |  |  |  |  |  |  |  |  |  |  |  |  |  |  | 2 to 3 h | 
